{"source": "patent US11578083B2", "about": "“Pyrimidinium compounds and their mixtures for combating animal pests” (BASF SE, priority 2017, dated 2023)", "format_in_all_cases": "in vivo", "key": {"[1]": {"test_system": "Greenhouse Whitefly (Trialeurodes vaporariorum)", "test": "Greenhouse Whitefly, egg plant leaf disk (table 5, mixtures)", "settings": "solo application Oxazosulfyl, use rate 50 ppm", "procedure": "For evaluating control of Greenhouse Whitefly (Trialeurodes vaporariorum) the test unit consisted of 96-well-microtiter plates containing a leaf disk of egg plant leaf disk with white fly eggs. The compounds or mixtures were formulated using a solution containing 75% water and 25% DMSO. Concentrations of formulated compounds or mixtures were sprayed onto the […] at 2.5 μl, using a custom built micro atomizer, at two replications.\n(§1) For experimental mixtures in these tests identical volumes of both mixing partners at the desired concentrations respectively, were mixed together.\nAfter application, microtiter plates were incubated at 23±1° C., 65±5% RH for 6 days. Mortality of hatched crawlers was then visually assessed."}, "[2]": {"test_system": "vetch aphid (Megoura viciae)", "test": "Test 1 vetch aphid, leaf disks (mixtures)", "settings": "Table 1, solo application Spinetoram, use rate 2 ppm", "source_text": "Synergism can be described as an interaction where the combined effect of two or more compounds is greater than the sum of the individual effects of each of the compounds. The presence of a synergistic effect in terms of percent control, between two mixing partners (X and Y) can be calculated using the Colby equation (Colby, S. R., 1967, Calculating Synergistic and Antagonistic Responses in Herbicide Combinations, Weeds, 15, 20-22):\nWhen the observed combined control effect is greater than the expected combined control effect (E), then the combined effect is synergistic.\nThe analysis of synergism or antagonism between the mixtures or compositions was determined using Colby's equation.\nFor evaluating control of vetch aphid (Megoura viciae) through contact or systemic means the test unit consisted of 24-well-microtiter plates containing broad bean leaf disks.\nThe compounds or mixtures were formulated using a solution containing 75% water and 25% DMSO. Concentrations of formulated compounds or mixtures were sprayed onto the leaf disks at 2.5 μl, using a custom built micro atomizer, at two replications. […]\nAfter application, the leaf disks were air-dried and 5-8 adult aphids placed on the leaf disks inside the microtiter plate wells. […] Aphid mortality and fecundity was then visually assessed."}, "[3]": {"test_system": "boll weevil (Anthonomus grandis)", "test": "Test 3 boll weevil, insect diet with eggs (mixtures)", "settings": "Table 3.2, solo application Spinetoram, use rate 4 ppm", "procedure": "For evaluating control of boll weevil (Anthonomus grandis) the test unit consisted of 24-well-microtiter plates containing an insect diet and 20-30 A. grandis eggs.\nThe compounds or mixtures were formulated using a solution containing 75% water and 25% DMSO. Concentrations of formulated compounds or mixtures were sprayed onto the insect diet at 20 μl, using a custom built micro atomizer, at two replications.\nas §1\nAfter application, microtiter plates were incubated at 23±1° C., 50±5% RH for 5 days. Egg and larval mortality was then visually assessed."}, "[4]": {"test_system": "brown planthopper (Nilaparvata lugens)", "test": "Test 6 brown planthopper, foliar spray (mixtures)", "settings": "Table 6.2, after 7 days, solo application Spinetoram, use rate 70 ppm", "procedure": "For evaluating control of brown planthopper (Nilaparvata lugens) by foliar spray method. Clean potted rice seedlings with upper leaf portion cut are properly labeled. Placed three potted rice plants per treatment concentration/combination on top of the rotating disc (270 mm) and sprayed with the 12 mL spray solution. Treated plants are allowed to air-dry in the laboratory for about an hour. After air-drying, covered each treated rice plant. Each treated plant was infested with brown planthoppers using a suction vacuum. Plants are maintained at 27° C.±1° C., 50±5% RH and 24 hours light conditions in a holding room. Percent mortality is recorded 7 days after infestation by counting both the dead and alive brown planthoppers on the plants and on the water."}, "[5]": {"test_system": "yellow fever mosquito (Aedes aegypti)", "settings": "in vivo", "procedure": "For evaluating control of yellow fever mosquito (Aedes aegypti) the test unit consisted of 96-well-microtiter plates containing 200 μl of tap water per well and 5-15 freshly hatched A. aegypti larvae.\nThe compounds or mixtures were formulated using a solution containing 75% water and 25% DMSO. Different concentrations of formulated compounds or mixtures were sprayed onto the insect diet at 2.5 μl, using a custom built micro atomizer, at two replications.\nas §1\nAfter application, microtiter plates were incubated at 28±1° C., 80±5% RH for 2 days. Larval mortality was then visually assessed."}, "[6]": {"test_system": "Cowpea aphid (Aphis craccivora)", "test": "B.3 Cowpea aphid leaf disk test", "settings": "foliar, 120 h", "procedure": "If not otherwise specified, the test solutions are prepared as follows:\nThe active compound is dissolved at the desired concentration in a mixture of 1:1 (vol:vol) distilled water: acetone. The test solution is prepared at the day of use.\nB.3 Cowpea aphid (Aphis craccivora):\nFor evaluating control of Cowpea aphid through contact or systemic means the test unit consists of 24-well-microtiter plates containing broad bean leaf disks.\nThe compounds are formulated using a solution containing 75% v/v water and 25% v/v DMSO. Different concentrations of formulated compounds are sprayed onto the leaf disks at 2.5 μl, using a custom built micro atomizer, at two replications.\nAfter application, the leaf disks are air-dried and 5-8 adult aphids placed on the leaf disks inside the microtiter plate wells. The aphids are then allowed to suck on the treated leaf disks and incubated at about 23±1° C. and about 50±5% relative humidity for 5 days. Aphid mortality and fecundity is then visually assessed."}, "[7]": {"test_system": "Rice green leafhopper (Nephotettix virescens)", "test": "B.1 Rice green leafhopper, sprayed rice seedlings", "settings": "72 h", "procedure": "B.1 Rice Green Leafhopper (Nephotettix virescens):\n(§2) Rice seedlings are cleaned and washed 24 hours before spraying. The active compounds are formulated in 50:50 acetone:water (vol:vol), and 0.1% vol/vol surfactant (EL 620) is added. Potted rice seedlings are sprayed with 5 ml test solution, air dried, placed in cages and inoculated with 10 adults. Treated rice plants are kept at about 28-29° C. and relative humidity of about 50-60%. Percent mortality is recorded after 72 hours."}, "[8]": {"test_system": "Rice brown plant hopper (Nilaparvata lugens)", "test": "B.2 Rice brown plant hopper, sprayed rice seedlings", "settings": "72 h", "procedure": "B.2 Rice Brown Plant Hopper (Nilaparvata lugens):\nas §2, with “(vol:vol)” for “(vol:vol),”"}, "[9]": {"test_system": "Thrips (Dichromothrips corbetti)", "test": "B.4 Thrips floral-immersion test", "settings": "72 h", "procedure": "B.4 Thrips (Dichromothrips Corbetti):\nDichromothrips corbetti adults used for bioassay are obtained from a colony maintained continuously under laboratory conditions. For testing purposes, the test compound is diluted in a 1:1 mixture of acetone:water (vol:vol), plus 0.01% vol/vol Alkamuls® EL 620 surfactant.\nThrips potency of each compound is evaluated by using a floral-immersion technique. Plastic petri dishes are used as test arenas. All petals of individual, intact orchid flowers are dipped into treatment solution and allowed to dry. Treated flowers are placed into individual petri dishes along with about 20 adult thrips. The petri dishes v then covered with lids. All test arenas are held under continuous light and a temperature of about 28° C. for duration of the assay. After 3 days, the numbers of live thrips are counted on each flower, and along inner walls of each petri dish. The percent mortality is recorded 72 hours after treatment."}, "Chilo suppressalis [10]": {"test_system": "Chilo suppressalis", "test": "B.3a Rice stem borer vial bioassay", "settings": "72 h", "procedure": "Field-collected rice straws were washed with tap water and cut for a certain of length. Straws were air dried before placing individually in vials (=replicate, 3×). About 125 μl test solution was sprayed per vial. Treated rice straws in vials were air dried under the laboratory hood. After air-drying, each straw was inoculated with 10 newly-emerged (0-day old) stem borer larvae. Vials were then covered. Set-up was kept in a holding room maintained at 27° C. and 65% RH for three days. At 3 days after inoculation, rice straws were manually dissected for larval mortality assessment. The data (Table C) show activity against two species of rice stem borers."}, "Chilo suppressalis [11]": {"test_system": "Chilo suppressalis", "test": "B.3b Rice striped stem borer, foliar spraying", "procedure": "All three pots (=replicates) of four to five-week old potted rice per treatment were simultaneously sprayed with 12 mL test solution. After spray application, plants were air dried in the laboratory before inoculation. After air-drying, 5 to 6-day old egg masses of CHILSU were used for inoculation. All stem borer-infested potted rice plants were transferred inside the screenhouse 1 day after inoculation until the final assessment. […] Whole plant damage was assessed before cutting each hill at the basal portion for tiller dissection. Each dissected tiller was inspected looking for dead (if possible) and alive stemborer larvae."}, "Chilo suppressalis [12]": {"test_system": "Chilo suppressalis", "test": "B.3c Rice striped stem borer, drench application", "settings": "Chilo suppressalis neonates, Dose 10 mg, 14 DAT", "source_text": "The test solution was poured onto the soil of each potted rice plant (=replicate) with five tillers each pot. After drench application, treated plants were transferred inside the screenhouse for three days prior to stemborer inoculation inside the laboratory. Three days after drench application, 5 to 6-day old egg masses of CHILSU were used for inoculation. All stemborer-infested potted rice plants were transferred inside the screenhouse 1 day after inoculation until the final assessment. […] Whole plant damage was assessed before cutting each hill at the basal portion for tiller dissection. Each dissected tiller was inspected looking for dead (if possible) and alive stemborer larvae."}}}
{"compound": "CCS(=O)(=O)c1cccnc1-c1nc2cc(S(=O)(=O)C(F)(F)F)ccc2o1", "note": "[Oxazosulfyl, 2-(3-ethylsulfonyl-2-pyridyl)-5-(trifluoromethylsulfonyl)-1,3-benzoxazole, reference compound]", "values": [{"measurement": "Average control %", "setting": "[1]", "result": 50, "unit": "%"}]}
{"compound": "spinetoram [reference compound]", "values": [{"measurement": "Average control %", "setting": "[2]", "result": 50, "unit": "%"}, {"measurement": "Average control %", "setting": "[3]", "result": 0, "unit": "%"}, {"measurement": "Average control %", "setting": "[4]", "result": 62, "unit": "%"}]}
{"compound": "Cc1cccc2sc3nncn3c12", "note": "[Tricyclazol, tricyclazole, reference compound]", "values": [{"measurement": "Average control %", "setting": "[5]", "result": 50, "unit": "%"}]}
{"compound": "C[n+]1c2n(c([O-])c(-c3ccccc3)c1=O)C(c1cnc(Cl)s1)CS2", "note": "(racemic) [Compound I-1, 3-(2-chlorothiazol-5-yl)-8-methyl-7-oxo-6-phenyl-2,3-dihydrothiazolo[3,2-a]pyrimidin-8-ium-5-olate]", "values": [{"measurement": "mortality at 1 ppm", "setting": "[6]", "result": 80, "unit": "%"}, {"measurement": "mortality at 1 ppm", "setting": "[7]", "result": 50, "unit": "%"}, {"measurement": "mortality at 1 ppm", "setting": "[8]", "result": 54, "unit": "%"}, {"measurement": "mortality at 10 ppm", "setting": "[9]", "result": 73, "unit": "%"}, {"measurement": "mortality at 300 ppm", "setting": "Chilo suppressalis [10]", "result": 80, "unit": "%"}, {"measurement": "Feeding damage (%)", "setting": "Chilo suppressalis [11]; Chilo suppressalis neonates, foliar spraying, Dose 200 ppm, 14 DAT", "result": 15, "unit": "%"}, {"measurement": "mortality at 200 ppm", "setting": "Chilo suppressalis [11]; Chilo suppressalis, foliar, 336 h", "result": 96, "unit": "%"}, {"measurement": "Feeding damage (%)", "setting": "Chilo suppressalis [12]", "result": 15, "unit": "%"}]}
